From patent publication US20240360114A1 (SIRONAX LTD., priority 2021, published 2024)

System: HT-1080 cells
Test: HT-1080 cell viability assay (ferroptosis induced by RSL3, Cell Titer-Glo)
Format: cell-based
Conditions: Homo sapiens, HT-1080, 20 h, ferroptosis inducer RSL3, 20 hours, ferroptosis inhibitory activity, Table 3
Method in brief: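 Cells seeded overnight, then co-treated with RSL3 and compound (3-fold, 10-point dilution, top 1.1 μM) for 20 hours. Viability by CellTiter-Glo luminescence, normalized to untreated controls; EC50 from sigmoidal non-linear regression.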

EC50 [nM]	SMILES
0.1 to 100	NC1CC2(C1)CC(Nc1ccc3cc(N4CCC(O)(C(F)(F)F)CC4)ccc3c1)C2 (centres unmarked) [Compound 620, 1-(6-((6-aminospiro[3.3]heptan-2-yl)amino)naphthalen-2-yl)-4-(trifluoromethyl)piperidin-4-ol]
0.1 to 100	Cc1nc(N2C[C@@H](C)O[C@@H](C)C2)ccc1NCC12C3C4C1C1C2C3C41CN (stereo partly drawn) [Compound 621, N-((4-(aminomethyl)cuban-1-yl)methyl)-6-((2S,6R)-2,6-dimethylmorpholino)-2-methylpyridin-3-amine]
0.1 to 100	Cc1cc(NC[C@H]2CC[C@H](N)CC2)ccc1NC(C)(C)C [Compound 622, N^4-(((1r,4r)-4-aminocyclohexyl)methyl)-N′-(tert-butyl)-2-methylbenzene-1,4-diamine]
0.1 to 100	Cc1nc(N2CCOC3(CC3)C2)ccc1NC1CC2(CC(N)C2)C1 (centres unmarked) [Compound 623, N^2-(2-methyl-6-(4-oxa-7-azaspiro[2.5]octan-7-yl)pyridin-3-yl)spiro[3.3]heptane-2,6-diamine]
0.1 to 100	Cc1nc(N2CC(C)OC(C)C2)ccc1NC1CCC2(CC1)CC(N)C2 (centres unmarked) [Compound 624, N^7-(6-(2,6-dimethylmorpholino)-2-methylpyridin-3-yl)spiro[3.5]nonane-2,7-diamine]
0.1 to 100	Cc1nc(N2CCOC3(CCC3)C2)ccc1NC1CC2(CC(N)C2)C1 (centres unmarked) [Compound 626, N^2-(2-methyl-6-(5-oxa-8-azaspiro[3.5]nonan-8-yl)pyridin-3-yl)spiro[3.3]heptane-2,6-diamine]
100 to 1000	Cc1nc(N2C[C@@H](C)O[C@@H](C)C2)ccc1NC12CCC(N)(CC1)C2 [Compound 627]
0.1 to 100	Cc1cc(N2CC(C)(C)OC(C)(C)C2)ccc1NC1CC2(CC(N)C2)C1 (centres unmarked) [Compound 628, N^2-(2-methyl-4-(2,2,6,6-tetramethylmorpholino)phenyl)spiro[3.3]heptane-2,6-diamine]
0.1 to 100	CC1CN(c2ccc3cc(NC4CC(N)C4)ccc3c2)CCO1 (centres unmarked) [Compound 629, N^1-(6-(2-methylmorpholino)naphthalen-2-yl)cyclobutane-1,3-diamine]
0.1 to 100	Cc1nc(N2C[C@@H](C)O[C@@H](C)C2)ccc1NC1CCCC(N)CCC1 (stereo partly drawn) [Compound 631, N1-(6-((2R,6S)-2,6-dimethylmorpholino)-2-methylpyridin-3-yl)cyclooctane-1,5-diamine]
0.1 to 100	CC1CN(c2ccc3cc(N[C@H]4CC[C@@H](C(N)=O)CC4)ccc3c2)CC(C)O1 (some centres unmarked) [Compound 632, (1s,4s)-4-((6-(2,6-dimethylmorpholino)naphthalen-2-yl)amino)cyclohexane-1-carboxamide]
0.1 to 100	NC(=O)N1CCC(Nc2ccc3cc(N4CCC(C(F)(F)F)CC4)ccc3c2)CC1 [Compound 633, 4-((6-(4-(trifluoromethyl)piperidin-1-yl)naphthalen-2-yl)amino)piperidine-1-carboxamide]
0.1 to 100	CCc1nc(N2CC(C)N(CC(F)(F)F)C(C)C2)c(F)cc1NC1CC(N)C1 (centres unmarked) [Compound 635, N1-(6-(3,5-dimethyl-4-(2,2,2-trifluoroethyl)piperazin-1-yl)-2-ethyl-5-fluoropyridin-3-yl)cyclobutane-1,3-diamine]
0.1 to 100	Cc1cc(N2CC(C)N(CC(F)(F)F)C(C)C2)ccc1NC1CC2(CC(N)C2)C1 (centres unmarked) [Compound 636, N2-(4-(3,5-dimethyl-4-(2,2,2-trifluoroethyl)piperazin-1-yl)-2-methylphenyl)spiro[3.3]heptane-2,6-diamine]
0.1 to 100	C[C@@H]1CN(c2ccc(NC3CC4(CC(N)C4)C3)c(OC(F)F)n2)C[C@H](C)O1 (stereo partly drawn) [Compound 637, N^2-(2-(difluoromethoxy)-6-((25,6R)-2,6-dimethylmorpholino)pyridin-3-yl)spiro[3.3]heptane-2,6-diamine]
0.1 to 100	NC1CC2(C1)CC(Nc1ccc3nc(NCC(F)(F)F)ccc3c1)C2 (centres unmarked) [Compound 639, N^6-(6-aminospiro[3.3]heptan-2-yl)-N^2-(2,2,2-trifluoroethyl) quinoline-2,6-diamine]
0.1 to 100	CCc1cc(N2C[C@@H](C)O[C@@H](C)C2)ccc1NC1CC2(CC(N)C2)C1 (stereo partly drawn) [Compound 640, N2-(4-((25,6R)-2,6-dimethylmorpholino)-2-ethylphenyl)spiro[3.3]heptane-2,6-diamine]
0.1 to 100	Cc1nc(N2CC(C)N(CC(F)(F)F)C(C)C2)c(F)cc1NC1CC2(CC(N)C2)C1 (centres unmarked) [Compound 641, N^2-(6-(3,5-dimethyl-4-(2,2,2-trifluoroethyl)piperazin-1-yl)-5-fluoro-2-methylpyridin-3-yl)spiro [3.3]heptane-2,6-diamine]
0.1 to 100	Cc1cc(N2CC(C)N(C(=O)C(F)(F)F)C(C)C2)ccc1NC1CC2(CC(N)C2)C1 (centres unmarked) [Compound 644, 1-(4-(4-((6-aminospiro[3.3]heptan-2-yl)amino)-3-methylphenyl)-2,6-dimethylpiperazin-1-yl)-2,2,2-trifluoroethan-1-one]
0.1 to 100	[2H]C1(Nc2ccc(N3C[C@@H](C)O[C@@H](C)C3)nc2C)CC2(CC(N)C2)C1 (some centres unmarked) [Compound 645]
0.1 to 100	CC1(C)CN(c2ccc3cc(NC4CC5(CC(N)C5)C4)ccc3n2)CC(C)(C)O1 (centres unmarked) [Compound 646, N2-(2-(2,2,6,6-tetramethylmorpholino)quinolin-6-yl)spiro[3.3]heptane-2,6-diamine]
0.1 to 100	Cc1cc(NC2CC3(CC(N)C3)C2)ccc1N1CC(C)N(C(=O)C(F)(F)F)C(C)C1 (centres unmarked) [Compound 647, 1-(4-(4-((6-aminospiro[3.3]heptan-2-yl)amino)-2-methylphenyl)-2,6-dimethylpiperazin-1-yl)-2,2,2-trifluoroethan-1-one]
0.1 to 100	CC1CN(c2ccc3cc(NC4CC5(CC(N)C5)C4)ccc3c2)CCO1 (centres unmarked) [Compound 648]

SMILES	EC50 [nM]
Cc1nc(N2CC[Si](C)(C)CC2)ccc1NC1CC2(CC(O)C2)C1 (centres unmarked) [Compound 625, 6-((6-(4,4-dimethyl-1,4-azasilinan-1-yl)-2-methylpyridin-3-yl)amino)spiro[3.3]heptan-2-ol]	0.1 to 100
Cc1cc(N2CC[Si](C)(C)CC2)ccc1NC1CC2(CC(N)C2)C1 (centres unmarked) [Compound 634, N2-(4-(4.4-dimethyl-1,4-azasilinan-1-yl)-2-methylphenyl)spiro[3.3]heptane-2,6-diamine]	0.1 to 100
Cc1nc(N2CC[Si](C)(C)CC2)c(F)cc1NC1CC2(CC(N)C2)C1 (centres unmarked) [Compound 638, N^2-(6-(4,4-dimethyl-1,4-azasilinan-1-yl)-5-fluoro-2-methylpyridin-3-yl)spiro[3.3]heptane-2,6-diamine]	0.1 to 100
Cc1nc(N2CC(C)N(C(=O)C(F)(F)F)C(C)C2)ccc1NC1CC2CCC(C1)N2 (centres unmarked) [Compound 642, 1-(4-(5-((8-azabicyclo[3.2.1]octan-3-yl)amino)-6-methylpyridin-2-yl)-2,6-dimethylpiperazin-1-yl)-2,2,2-trifluoroethan-1-one]	0.1 to 100
Cc1nc(N2CC(C)N(CC(F)(F)F)C(C)C2)ccc1NC1CC2CCC(C1)N2 (centres unmarked) [Compound 643, N-(6-(3,5-dimethyl-4-(2,2,2-trifluoroethyl)piperazin-1-yl)-2-methylpyridin-3-yl)-8-azabicyclo[3.2.1]octan-3-amine]	0.1 to 100

Same assay, conditions: ferroptosis inducer RSL3, 20 hours, ferroptosis inhibitory activity, Table 3

EC50 [nM]	SMILES
0.1 to 100	CC1CN(c2ccc3cc(NC4CC(N)C4)ccc3c2)CCO1 (centres unmarked) [Compound 630, N^1-(6-(2-methylmorpholino)naphthalen-2-yl)cyclobutane-1,3-diamine]
